Measured values published in ChEMBL document CHEMBL1151494, “Synthesis of new building blocks for peptide nucleic acids containing monomers with variations in the backbone” (Bioorg Med Chem Lett, 1997).
Activity calls are given as the source filed them. No cut-off for these calls is given here.

How the values were obtained:
[1] = tested on: Proteinase K (Tritirachium album); test: The stability against proteinase K; Active
[2] = The stability against nucleases; Active

| Stability [1] | Stability [2] | Structure (SMILES) |
| --- | --- | --- |
| Active | Active | Cc1cn(CC(=O)N2C[C@@H](N)C[C@H]2C(=O)NC2C[C@@H](C(=O)N[C@H]3C[C@@H](C(=O)NC4C[C@@H](C(=O)N[C@H]5C[C@@H](C(=O)NC6C[C@@H](C(=O)N[C@H]7C[C@@H](C(=O)NC8C[C@@H](C(=O)N[C@@H](C)C(=O)O)N(C(=O)Cn9cc(C)c(=O)[nH]c9=O)C8)N(C(=O)Cn8cc(C)c(=O)[nH]c8=O)C7)N(C(=O)Cn7cc(C)c(=O)[nH]c7=O)C6)N(C(=O)Cn6cc(C)c(=O)[nH]c6=O)C5)N(C(=O)Cn5cc(C)c(=O)[nH]c5=O)C4)N(C(=O)Cn4cc(C)c(=O)[nH]c4=O)C3)N(C(=O)Cn3cc(C)c(=O)[nH]c3=O)C2)c(=O)[nH]c1=O (stereo partly drawn) |
| Active | Active | Cc1cn([C@H]2C[C@@H](C(=O)NCC(=O)O)N(C(=O)CNC(=O)[C@@H]3C[C@H](n4cc(C)c(=O)[nH]c4=O)CN3C(=O)CNC(=O)[C@@H]3C[C@H](n4cc(C)c(=O)[nH]c4=O)CN3C(=O)CNC(=O)[C@@H]3C[C@H](n4cc(C)c(=O)[nH]c4=O)CN3C(=O)CNC(=O)[C@@H]3C[C@H](n4cc(C)c(=O)[nH]c4=O)CN3C(=O)CNC(=O)[C@@H]3C[C@H](n4cc(C)c(=O)[nH]c4=O)CN3C(=O)CNC(=O)[C@@H]3C[C@H](n4cc(C)c(=O)[nH]c4=O)CN3C(=O)CNC(=O)[C@@H]3C[C@H](n4cc(C)c(=O)[nH]c4=O)CN3C(=O)[C@@H](N)CCCCN)C2)c(=O)[nH]c1=O |
| Active | Active | Cc1cn(CC(=O)N2C[C@H](N)C[C@H]2C(=O)NC2C[C@@H](C(=O)N[C@@H]3C[C@@H](C(=O)NC4C[C@@H](C(=O)N[C@@H]5C[C@@H](C(=O)NC6C[C@@H](C(=O)N[C@@H]7C[C@@H](C(=O)NC8C[C@@H](C(=O)N[C@@H](C)C(=O)O)N(C(=O)Cn9cc(C)c(=O)[nH]c9=O)C8)N(C(=O)Cn8cc(C)c(=O)[nH]c8=O)C7)N(C(=O)Cn7cc(C)c(=O)[nH]c7=O)C6)N(C(=O)Cn6cc(C)c(=O)[nH]c6=O)C5)N(C(=O)Cn5cc(C)c(=O)[nH]c5=O)C4)N(C(=O)Cn4cc(C)c(=O)[nH]c4=O)C3)N(C(=O)Cn3cc(C)c(=O)[nH]c3=O)C2)c(=O)[nH]c1=O (stereo partly drawn) |
| Active | Active | Cc1cn([C@@H]2C[C@@H](C(=O)NCC(=O)O)N(C(=O)CNC(=O)[C@@H]3C[C@@H](n4cc(C)c(=O)[nH]c4=O)CN3C(=O)CNC(=O)[C@@H]3C[C@@H](n4cc(C)c(=O)[nH]c4=O)CN3C(=O)CNC(=O)[C@@H]3C[C@@H](n4cc(C)c(=O)[nH]c4=O)CN3C(=O)CNC(=O)[C@@H]3C[C@@H](n4cc(C)c(=O)[nH]c4=O)CN3C(=O)CNC(=O)[C@@H]3C[C@@H](n4cc(C)c(=O)[nH]c4=O)CN3C(=O)CNC(=O)[C@@H]3C[C@@H](n4cc(C)c(=O)[nH]c4=O)CN3C(=O)CNC(=O)[C@@H]3C[C@@H](n4cc(C)c(=O)[nH]c4=O)CN3C(=O)[C@@H](N)CCCCN)C2)c(=O)[nH]c1=O |
